Data reported in ChEMBL document CHEMBL3885881, “DrugMatrix”.

Organism: Rattus norvegicus
Assay: DrugMatrix - Regimen: Daily Repeat
Format: toxicity, organism-based, Sprague-Dawley
Set-up: regimen Daily Repeat, gender Male, age 6-8 weeks
Conditions: in vivo, iv, vehicle 100 % SALINE; for ABSOLUTE BASOPHIL / ABSOLUTE EOSINOPHIL / ABSOLUTE LYMPHOCYTE / ABSOLUTE MONOCYTE / ABSOLUTE SEGMENTED NEUTROPHIL / BASOPHIL / EOSINOPHIL / ERYTHROCYTE COUNT / HEMATOCRIT / HEMOGLOBIN / LEUKOCYTE COUNT / LYMPHOCYTE / MEAN CORPUSCULAR HEMOGLOBIN / MEAN CORPUSCULAR HEMOGLOBIN CONCENTRATION / MEAN CORPUSCULAR VOLUME / MONOCYTE / NEUTROPHIL / NUCLEATED RED BLOOD CELLS / PLATELET COUNT: tissue Blood; for ALANINE AMINOTRANSFERASE / ALBUMIN / ALKALINE PHOSPHATASE / ASPARTATE AMINOTRANSFERASE / BLOOD UREA NITROGEN / CARBON DIOXIDE / CHLORIDE / CHOLESTEROL / CREATINE PHOSPHOKINASE / CREATININE / GLUCOSE / LACTATE DEHYDROGENASE / LIPASE / PHOSPHORUS / POTASSIUM / SODIUM / TOTAL BILIRUBIN / TOTAL PROTEIN / URIC ACID: tissue Plasma
[1] = 23 mg/kg, 120 h, dose level Low, time 5 day
[2] = 487 mg/kg, 72 h, dose level High, time 3 day
[3] = 487 mg/kg, 120 h, dose level High, time 5 day

Nc1ccn([C@@H]2O[C@H](CO)[C@@H](O)[C@@H]2O)c(=O)n1 [CYTARABINE]
ABSOLUTE BASOPHIL [1]: 0 CELLS/uL | ABSOLUTE EOSINOPHIL [1]: 0 CELLS/uL | ABSOLUTE LYMPHOCYTE [1]: 5539 CELLS/uL | ABSOLUTE MONOCYTE [1]: 16.67 CELLS/uL | ABSOLUTE SEGMENTED NEUTROPHIL [1]: 244.33 CELLS/uL | BASOPHIL [1]: 0% | EOSINOPHIL [1]: 0% | ERYTHROCYTE COUNT [1]: 5.12 x10E6/uL | HEMATOCRIT [1]: 33.83% | HEMOGLOBIN [1]: 13.53 G/DL | LEUKOCYTE COUNT [1]: 5.8 x10E3/uL | LYMPHOCYTE [1]: 95% | MEAN CORPUSCULAR HEMOGLOBIN [1]: 26.47 pg | MEAN CORPUSCULAR HEMOGLOBIN CONCENTRATION [1]: 40 G/DL | MEAN CORPUSCULAR VOLUME [1]: 66.2 fL | MONOCYTE [1]: 0.33% | NEUTROPHIL [1]: 4.67% | NUCLEATED RED BLOOD CELLS [1]: 0 /100WBC | PLATELET COUNT [1]: 1095.67 x10E3/uL | ALANINE AMINOTRANSFERASE [1]: 41.67 u/L | ALBUMIN [1]: 4.1 G/DL | ALKALINE PHOSPHATASE [1]: 306.67 u/L | ASPARTATE AMINOTRANSFERASE [1]: 78.33 u/L | BLOOD UREA NITROGEN [1]: 12.67 mg/dL | CARBON DIOXIDE [1]: 26.33 mmol/L | CHLORIDE [1]: 99.33 MEQ/L | CHOLESTEROL [1]: 67.67 mg/dL | CREATINE PHOSPHOKINASE [1]: 261.33 u/L | CREATININE [1]: 0.21 mg/dL | GLUCOSE [1]: 172 mg/dL | LACTATE DEHYDROGENASE [1]: 75 u/L | LIPASE [1]: 11.33 u/L | PHOSPHORUS [1]: 10.17 mg/dL | POTASSIUM [1]: 5.08 MEQ/L | SODIUM [1]: 144.13 MEQ/L | TOTAL BILIRUBIN [1]: 0.17 mg/dL | TOTAL PROTEIN [1]: 5.77 G/DL | URIC ACID [1]: 0.87 mg/dL | ABSOLUTE BASOPHIL [2]: 0 CELLS/uL | ABSOLUTE EOSINOPHIL [2]: 62 CELLS/uL | ABSOLUTE LYMPHOCYTE [2]: 7623.33 CELLS/uL | ABSOLUTE MONOCYTE [2]: 62 CELLS/uL | ABSOLUTE SEGMENTED NEUTROPHIL [2]: 686 CELLS/uL | BASOPHIL [2]: 0% | EOSINOPHIL [2]: 0.67% | ERYTHROCYTE COUNT [2]: 4.4 x10E6/uL | HEMATOCRIT [2]: 28.67% | HEMOGLOBIN [2]: 11.3 G/DL | LEUKOCYTE COUNT [2]: 8.43 x10E3/uL | LYMPHOCYTE [2]: 91.33% | MEAN CORPUSCULAR HEMOGLOBIN [2]: 25.7 pg | MEAN CORPUSCULAR HEMOGLOBIN CONCENTRATION [2]: 39.4 G/DL | MEAN CORPUSCULAR VOLUME [2]: 65.13 fL | MONOCYTE [2]: 0.67% | NEUTROPHIL [2]: 7.33% | NUCLEATED RED BLOOD CELLS [2]: 0 /100WBC | PLATELET COUNT [2]: 1093.33 x10E3/uL | ALANINE AMINOTRANSFERASE [2]: 45.67 u/L | ALBUMIN [2]: 4.07 G/DL | ALKALINE PHOSPHATASE [2]: 302.33 u/L | ASPARTATE AMINOTRANSFERASE [2]: 81.33 u/L | BLOOD UREA NITROGEN [2]: 12 mg/dL | CARBON DIOXIDE [2]: 31 mmol/L | CHLORIDE [2]: 101.67 MEQ/L | CHOLESTEROL [2]: 77.67 mg/dL | CREATINE PHOSPHOKINASE [2]: 242.33 u/L | CREATININE [2]: 0.19 mg/dL | GLUCOSE [2]: 168.33 mg/dL | LACTATE DEHYDROGENASE [2]: 55.33 u/L | LIPASE [2]: 10.67 u/L | PHOSPHORUS [2]: 10.87 mg/dL | POTASSIUM [2]: 5.4 MEQ/L | SODIUM [2]: 145.23 MEQ/L | TOTAL BILIRUBIN [2]: 0.2 mg/dL | TOTAL PROTEIN [2]: 5.93 G/DL | URIC ACID [2]: 0.8 mg/dL | ABSOLUTE BASOPHIL [3]: 0 CELLS/uL | ABSOLUTE EOSINOPHIL [3]: 10 CELLS/uL | ABSOLUTE LYMPHOCYTE [3]: 3604.33 CELLS/uL | ABSOLUTE MONOCYTE [3]: 0 CELLS/uL | ABSOLUTE SEGMENTED NEUTROPHIL [3]: 152.33 CELLS/uL | BASOPHIL [3]: 0% | EOSINOPHIL [3]: 0.33% | ERYTHROCYTE COUNT [3]: 4.2 x10E6/uL | HEMATOCRIT [3]: 26.53% | HEMOGLOBIN [3]: 10.7 G/DL | LEUKOCYTE COUNT [3]: 3.77 x10E3/uL | LYMPHOCYTE [3]: 95.67% | MEAN CORPUSCULAR HEMOGLOBIN [3]: 25.43 pg | MEAN CORPUSCULAR HEMOGLOBIN CONCENTRATION [3]: 40.37 G/DL | MEAN CORPUSCULAR VOLUME [3]: 63.07 fL | MONOCYTE [3]: 0% | NEUTROPHIL [3]: 4% | NUCLEATED RED BLOOD CELLS [3]: 0 /100WBC | PLATELET COUNT [3]: 1216.67 x10E3/uL | ALANINE AMINOTRANSFERASE [3]: 41.67 u/L | ALBUMIN [3]: 4.1 G/DL | ALKALINE PHOSPHATASE [3]: 275.33 u/L | ASPARTATE AMINOTRANSFERASE [3]: 82.33 u/L | BLOOD UREA NITROGEN [3]: 13.33 mg/dL | CARBON DIOXIDE [3]: 26 mmol/L | CHLORIDE [3]: 100.67 MEQ/L | CHOLESTEROL [3]: 71.33 mg/dL | CREATINE PHOSPHOKINASE [3]: 326 u/L | CREATININE [3]: 0.23 mg/dL | GLUCOSE [3]: 159 mg/dL | LACTATE DEHYDROGENASE [3]: 65 u/L | LIPASE [3]: 11 u/L | PHOSPHORUS [3]: 9.23 mg/dL | POTASSIUM [3]: 5.41 MEQ/L | SODIUM [3]: 145.37 MEQ/L | TOTAL BILIRUBIN [3]: 0.2 mg/dL | TOTAL PROTEIN [3]: 5.7 G/DL | URIC ACID [3]: 0.57 mg/dL
